According to patent US20070243264A1, “Thickened Dilute Hypochlorite” (priority 2006, published 2007):
Like-named read-outs stand apart in the source and are kept apart here.

Legend:
[1] = Gel formation of hypochlorite thickened with Laponite with added buffers; settings: 200 ppm hypochlorite thickened with Laponite; for gel formation: acid added, amount not stated
[2] = Effect of thickeners on stability of dilute hypochlorite; type: physicochemical
Experimental: The amount of available halogen oxidant in the composition is determined by placing samples of the composition into about 50 milliliters of distilled water, followed by addition of about 10 milliliters of a 10 weight/weight percent solution of potassium iodide and addition of about 10 milliliters of a 10 volume percent solution of sulfuric acid, the resulting mixture being well stirred. The resulting yellow to brown solution, whose color is the result of oxidation of free iodine ion (I^−) to molecular iodine (I2), was then volumetrically titrated to an essentially colorless endpoint by addition of standardized 0.1 Molar sodium thiosulfate (Na2S2O3) titrant. Calculation then expresses the result as percent of available molecular chlorine (Cl2), that is to say assigning two equivalents per mole of titrated hypohalite oxidant. Stability results are then expressed by repeated assays over time using identically prepared samples resulting from the same composition, normalized to 100 percent representative of the starting available chlorine measured initially.

For O=C(O)CCC(=O)O [Succinic acid], the gel ([1]; buffer Wt. % 0.01, pH 9.2) was “Yes” and the gel ([1]; buffer Wt. % 0.04, pH 8.2) was “Viscous liquid”.
For sodium alkylbenzenesulfonate, the “stability of dilute hypochlorite with surfactant, compared with Vangel ES” value (from here on “stability … compared with Vangel ES”) [2] was “less stable than Vangel ES®”.
For CC(=O)O [acetic acid], the gel formation [1] was “Gels”.
In the case of CCCCCCCCCCCCCCCC[N+](C)(C)C.[Cl-] [trimethylC16 ammonium chloride], the “stability … compared with Vangel ES” value [2] is reported as “less stable than Vangel ES®”.
With Cl [hydrochloric acid] the gel formation [1] was “Gels”.
With OB(O)O [Boric acid] the gel ([1]; buffer Wt. % 0.21, pH 8.5) was “Yes” and the gel ([1]; buffer Wt. % 0.41, pH 8.4) was “Yes”.
With CCCCCCCCCCCCOS(=O)(=O)[O-].[Na+] [sodium lauryl sulfate] the “stability … compared with Vangel ES” value ([2]; comparison with thickeners of Table 4) was “less stable than Vangel ES®”.
For CCCCCCCCS(=O)(=O)[O-].[Na+] [sodium octyl sulfonate], the “stability … compared with Vangel ES” value [2] was “less stable than Vangel ES®”.
